BindingDB's records for doi:10.1016/j.chembiol.2005.08.008 (Gpc Biotech, 2005)

Tests used:
[1] = target: T1, Cyclin-dependent kinase/G2/mitotic-specific cyclin- 1 (Homo sapiens, UniProt P06493); assay: Cell Proliferation Assay
Description: Inhibition of HCT116 cell proliferation with compounds using calcein AM Assay.

[2] = target: T1, Cyclin-dependent kinase/G2/mitotic-specific cyclin- 1; assay: Inhibition Assay
Description: (§1) In vitro kinase activity of PEGylated pyrazolopyrimidone CDK inhibitor or a 5 PEG-amine was coupled to ReactiGel agarose beads (Pierce, No. 20259).

[3] = target: T2, Cyclin-dependent kinase 4/G1/S-specific cyclin-D1 (Homo sapiens, UniProt P11802); assay: Inhibition Assay
T2 sequence (P11802 whole entry): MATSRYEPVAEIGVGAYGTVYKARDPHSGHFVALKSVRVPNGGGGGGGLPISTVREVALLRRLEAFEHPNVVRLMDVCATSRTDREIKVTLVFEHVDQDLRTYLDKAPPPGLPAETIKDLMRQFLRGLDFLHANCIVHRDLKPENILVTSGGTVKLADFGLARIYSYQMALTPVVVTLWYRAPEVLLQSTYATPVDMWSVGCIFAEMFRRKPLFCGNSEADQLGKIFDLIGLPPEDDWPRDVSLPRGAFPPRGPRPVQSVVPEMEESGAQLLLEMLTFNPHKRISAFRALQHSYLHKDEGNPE
T2 sequence (P24385 whole entry, further chain): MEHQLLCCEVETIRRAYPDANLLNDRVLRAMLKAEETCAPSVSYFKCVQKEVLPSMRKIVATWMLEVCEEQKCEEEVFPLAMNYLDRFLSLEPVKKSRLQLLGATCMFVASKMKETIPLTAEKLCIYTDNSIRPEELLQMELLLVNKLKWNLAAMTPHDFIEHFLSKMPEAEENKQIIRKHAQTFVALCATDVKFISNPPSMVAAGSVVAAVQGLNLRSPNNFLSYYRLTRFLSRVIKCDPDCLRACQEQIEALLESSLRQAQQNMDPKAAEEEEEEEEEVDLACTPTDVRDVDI
Description: as §1

[4] = target: T3, Cyclin-dependent kinase 2/G1/S-specific cyclin-E1 (Homo sapiens, UniProt P24941); assay: Inhibition Assay
Description: as §1

[5] = target: T1, Cyclin-dependent kinase/G2/mitotic-specific cyclin- 1; assay: Cell Proliferation Assay; remark: listed apart in the source
Method: Inhibition of HCT116 cell proliferation after 72hr of incubation with compounds was determined by SRB Assay.

[6] = target: T1, Cyclin-dependent kinase/G2/mitotic-specific cyclin- 1; assay: In Vitro Kinase Assay
Description: (§2) Inhibition of in vitro kinase activity of purified CDKs.

[7] = target: T2, Cyclin-dependent kinase 4/G1/S-specific cyclin-D1; assay: In Vitro Kinase Assay
Description: as §2

[8] = target: T3, Cyclin-dependent kinase 2/G1/S-specific cyclin-E1; assay: In Vitro Kinase Assay
Description: as §2

[9] = target: Cyclin-dependent kinase 6/G1/S-specific cyclin-D3 (Homo sapiens, UniProt Q00534); assay: In Vitro Kinase Assay
Sequence of Cyclin-dependent kinase 6/G1/S-specific cyclin-D3 (Q00534 whole entry): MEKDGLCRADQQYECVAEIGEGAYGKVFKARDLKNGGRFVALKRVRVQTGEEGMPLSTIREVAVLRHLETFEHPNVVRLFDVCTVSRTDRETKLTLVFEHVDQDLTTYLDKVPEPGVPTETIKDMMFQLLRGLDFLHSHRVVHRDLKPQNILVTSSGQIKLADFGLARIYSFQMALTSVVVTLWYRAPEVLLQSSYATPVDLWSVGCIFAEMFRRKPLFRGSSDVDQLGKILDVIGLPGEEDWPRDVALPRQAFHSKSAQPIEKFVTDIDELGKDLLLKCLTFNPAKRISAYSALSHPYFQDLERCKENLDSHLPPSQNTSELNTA
Sequence of Cyclin-dependent kinase 6/G1/S-specific cyclin-D3 (P30281 whole entry, further chain): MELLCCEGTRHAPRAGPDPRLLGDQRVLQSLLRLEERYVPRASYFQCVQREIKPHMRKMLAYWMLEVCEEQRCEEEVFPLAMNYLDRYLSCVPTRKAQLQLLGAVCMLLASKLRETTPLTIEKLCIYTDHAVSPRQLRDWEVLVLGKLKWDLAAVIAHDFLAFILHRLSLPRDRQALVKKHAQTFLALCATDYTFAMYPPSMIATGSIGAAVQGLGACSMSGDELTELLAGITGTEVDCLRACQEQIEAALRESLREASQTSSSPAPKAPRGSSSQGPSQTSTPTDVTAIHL
Description: as §2

[10] = target: Cyclin-dependent kinase 5 (Homo sapiens, UniProt Q00535); assay: In Vitro Kinase Assay
Sequence of Cyclin-dependent kinase 5 (Q00535 whole entry): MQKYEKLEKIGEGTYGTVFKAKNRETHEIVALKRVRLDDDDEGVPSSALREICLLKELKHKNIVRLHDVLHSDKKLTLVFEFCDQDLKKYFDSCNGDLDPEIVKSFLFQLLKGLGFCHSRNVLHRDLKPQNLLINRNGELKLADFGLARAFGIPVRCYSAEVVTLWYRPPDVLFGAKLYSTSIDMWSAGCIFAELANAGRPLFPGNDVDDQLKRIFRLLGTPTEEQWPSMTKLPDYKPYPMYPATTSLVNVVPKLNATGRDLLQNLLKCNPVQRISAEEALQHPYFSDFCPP
Description: as §2

[11] = target: CDK3/Cyclin E (Homo sapiens, UniProt Q00526); assay: In Vitro Kinase Assay
Sequence of CDK3/Cyclin E (P24864 whole entry): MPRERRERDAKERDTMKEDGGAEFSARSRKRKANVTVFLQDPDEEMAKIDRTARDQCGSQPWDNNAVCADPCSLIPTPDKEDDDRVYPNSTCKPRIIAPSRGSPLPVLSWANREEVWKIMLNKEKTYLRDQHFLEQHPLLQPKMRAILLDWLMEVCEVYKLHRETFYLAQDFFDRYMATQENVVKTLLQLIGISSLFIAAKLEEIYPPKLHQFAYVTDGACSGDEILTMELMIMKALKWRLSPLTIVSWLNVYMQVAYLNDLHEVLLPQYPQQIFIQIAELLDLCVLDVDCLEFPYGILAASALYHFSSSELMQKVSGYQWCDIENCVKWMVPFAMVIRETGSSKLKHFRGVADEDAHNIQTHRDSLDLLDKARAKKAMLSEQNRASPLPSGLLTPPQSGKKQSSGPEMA
Sequence of CDK3/Cyclin E (Q00526 whole entry): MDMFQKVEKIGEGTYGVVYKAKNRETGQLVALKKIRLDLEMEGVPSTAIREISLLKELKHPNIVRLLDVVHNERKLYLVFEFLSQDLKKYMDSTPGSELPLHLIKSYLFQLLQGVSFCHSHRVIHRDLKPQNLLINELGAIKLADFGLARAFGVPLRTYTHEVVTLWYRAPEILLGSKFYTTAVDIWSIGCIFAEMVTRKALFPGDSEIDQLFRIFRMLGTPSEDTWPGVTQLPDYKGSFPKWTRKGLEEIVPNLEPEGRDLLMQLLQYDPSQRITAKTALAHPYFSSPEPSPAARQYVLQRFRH
Description: as §2

[12] = target: T4, CDK-activating kinase assembly factor MAT1 (Homo sapiens, UniProt P51948); assay: In Vitro Kinase Assay
T4 sequence (P51948 whole entry): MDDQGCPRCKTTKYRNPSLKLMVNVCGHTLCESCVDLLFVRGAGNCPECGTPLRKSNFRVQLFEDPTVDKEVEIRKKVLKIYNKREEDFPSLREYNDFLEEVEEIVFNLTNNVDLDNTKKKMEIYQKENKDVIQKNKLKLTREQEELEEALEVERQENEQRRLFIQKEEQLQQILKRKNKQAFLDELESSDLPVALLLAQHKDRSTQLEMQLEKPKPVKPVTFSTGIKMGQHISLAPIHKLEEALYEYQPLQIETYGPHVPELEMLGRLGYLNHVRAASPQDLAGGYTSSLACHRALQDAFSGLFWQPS
Description: as §2

[13] = target: Glycogen synthase kinase-3 beta (Homo sapiens, UniProt P49841); assay: In Vitro Kinase Assay
Sequence of Glycogen synthase kinase-3 beta (P49841 whole entry): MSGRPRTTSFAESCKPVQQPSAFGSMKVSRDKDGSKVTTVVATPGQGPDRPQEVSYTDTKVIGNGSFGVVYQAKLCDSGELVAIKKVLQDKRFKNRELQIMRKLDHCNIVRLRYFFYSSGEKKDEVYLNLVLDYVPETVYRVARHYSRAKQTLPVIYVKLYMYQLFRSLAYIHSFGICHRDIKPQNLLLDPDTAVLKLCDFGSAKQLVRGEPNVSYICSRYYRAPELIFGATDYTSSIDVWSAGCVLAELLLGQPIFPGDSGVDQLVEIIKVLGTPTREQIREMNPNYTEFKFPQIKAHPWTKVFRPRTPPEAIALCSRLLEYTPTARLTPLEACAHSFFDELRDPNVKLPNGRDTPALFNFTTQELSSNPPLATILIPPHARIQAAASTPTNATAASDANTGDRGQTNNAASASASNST

T1 sequence (P06493 whole entry): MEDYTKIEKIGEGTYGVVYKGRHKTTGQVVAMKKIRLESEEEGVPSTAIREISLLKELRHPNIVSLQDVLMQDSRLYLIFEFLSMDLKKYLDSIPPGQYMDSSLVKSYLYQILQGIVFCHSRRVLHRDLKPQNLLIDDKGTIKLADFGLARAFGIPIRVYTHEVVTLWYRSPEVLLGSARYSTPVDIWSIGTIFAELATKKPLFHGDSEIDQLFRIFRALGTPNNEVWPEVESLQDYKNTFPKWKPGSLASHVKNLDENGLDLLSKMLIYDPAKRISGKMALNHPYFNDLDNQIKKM
T1 sequence (P14635 whole entry, further chain): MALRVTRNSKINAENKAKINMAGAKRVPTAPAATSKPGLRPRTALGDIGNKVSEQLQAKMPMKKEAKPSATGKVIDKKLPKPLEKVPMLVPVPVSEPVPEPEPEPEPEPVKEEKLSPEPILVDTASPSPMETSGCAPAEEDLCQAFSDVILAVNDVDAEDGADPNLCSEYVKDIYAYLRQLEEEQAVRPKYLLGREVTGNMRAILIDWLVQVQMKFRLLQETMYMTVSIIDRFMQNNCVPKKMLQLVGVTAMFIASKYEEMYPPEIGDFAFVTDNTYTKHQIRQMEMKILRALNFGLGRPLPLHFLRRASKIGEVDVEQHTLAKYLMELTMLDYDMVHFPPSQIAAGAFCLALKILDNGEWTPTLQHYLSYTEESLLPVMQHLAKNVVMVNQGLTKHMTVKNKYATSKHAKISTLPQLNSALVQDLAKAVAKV

Row | Structure (SMILES) | IC50 [5] [nM] | IC50 [6] [nM] | IC50 [7] [nM] | IC50 [8] [nM] | also measured
1 | COCCOCCOCCOc1ccc(Cc2nc3c(c(C(C)C)nn3-c3c(Cl)cccc3Cl)c(=O)[nH]2)cc1 [PEGylated derivative, RGB-286276] | – | – | – | – | IC50 [1]: 34 nM; IC50 [2]: 84 nM; IC50 [3]: 890 nM; IC50 [4]: 22 nM
2 | COc1ccc(Cc2nc3c(c(C(C)C)nn3-c3c(Cl)cc(Cl)cc3Cl)c(=O)[nH]2)cc1 [Pyrazolopyrimidone analog, RGB-285940] | 410 | 230 | 858 | 7 | –
3 | CC(C)c1nn(-c2c(Cl)cccc2Cl)c2nc(Cc3ccc(OCCN4CCOCC4)cc3)[nH]c(=O)c12 [Pyrazolopyrimidone analog, RGB-285960] | 64 | 310 | 1750 | 9 | –
4 | CC(C)c1nn(-c2c(Cl)cccc2Cl)c2nc(Cc3ccc(OCCO)cc3)[nH]c(=O)c12 [Pyrazolopyrimidone analog, RGB-286147] | 51 | 48 | 839 | 15 | IC50 [9]: 282 nM; IC50 [10]: 10 nM; IC50 [11]: 9 nM; IC50 [12]: 71 nM; IC50 [13]: 754 nM
5 | COc1ccc(Cc2nc3c(c(C(C)C)nn3-c3c(Cl)cccc3Cl)c(=O)[nH]2)cc1 [Pyrazolopyrimidone analog, RGB-286331] | 220 | 43 | – | 4 | –
6 | COc1ccc(Cc2nc3c(cnn3-c3c(Cl)cc(Cl)cc3Cl)c(=O)[nH]2)cc1 [Pyrazolopyrimidone analog, RGB-310590] | 5500 | – | – | – | –
7 | COc1ccc(Cc2nc3c(c(Cc4ccccc4)nn3-c3c(Cl)cc(Cl)cc3Cl)c(=O)[nH]2)cc1 [Pyrazolopyrimidone analog, RGB-310591] | > 10000 | – | – | – | –
8 | COc1ccc(Cc2nc3n[nH]c(C(C)C)c3c(=O)[nH]2)cc1 [Pyrazolopyrimidone analog, RGB-310595] | > 10000 | – | – | – | –
9 | COc1ccc(Cc2nc3c(c(C(C)C)nn3-c3ccccc3)c(=O)[nH]2)cc1 [Pyrazolopyrimidone analog, RGB-310596] | > 10000 | – | – | – | –
